Results taken from US20120012499A1, “TABLET FORMULATION” (Novo Nordisk A/S, priority 2006, published 2012).
≈ marks a conversion by molar mass, not a printed value.

Assay: solubility of drug substance in pH 5.0 buffer solution
Type: physicochemical
Details: aqueous buffer

- solubility: 9 µg/mL (≈ 19.9 µM)
Compound: CCOc1cc(CC(=O)N[C@@H](CC(C)C)c2ccccc2N2CCCCC2)ccc1C(=O)O [repaglinide, (S)-2-Ethoxy-4-[2-[[3-methyl-1-[2-(1-piperidinyl)phenyl]butyl]amino]-2-oxoethyl]benzoic acid]
